In ChEMBL document CHEMBL4507320, “Data for DCP probe NVS-MALT1” (2021):

Assays:
[1] = target: Calcium-dependent protein kinase 1 (Plasmodium falciparum) (UniProt P62344); conditions: Compound concentration 1000.0 nM
[2] = target: Muscarinic acetylcholine receptor M5 (Homo sapiens) (UniProt P08912); conditions: Compound concentration 10.0 uM
[3] = target: Serine/threonine-protein kinase mTOR (Homo sapiens) (UniProt P42345); conditions: Compound concentration 1000.0 nM
[4] = target: Cyclin-dependent kinase 4 (Homo sapiens) (UniProt P11802); conditions: Compound concentration 1000.0 nM
[5] = system: Tyrosine-protein kinase ABL1 (Homo sapiens), P00519 [T315I]; conditions: Compound concentration 1000.0 nM
[6] = target: Cyclin-dependent kinase 5 (Homo sapiens) (UniProt Q00535); conditions: Compound concentration 1000.0 nM
[7] = target: cGMP-dependent protein kinase 2 (Homo sapiens) (UniProt Q13237); conditions: Compound concentration 1000.0 nM
[8] = target: Mitogen-activated protein kinase 10 (Homo sapiens) (UniProt P53779); conditions: Compound concentration 1000.0 nM
[9] = target: Mitogen-activated protein kinase kinase kinase 19 (Homo sapiens) (UniProt Q56UN5); conditions: Compound concentration 1000.0 nM
[10] = target: Mitogen-activated protein kinase kinase kinase 1 (Homo sapiens) (UniProt Q13233); conditions: Compound concentration 1000.0 nM
[11] = target: Mitogen-activated protein kinase 3 (Homo sapiens) (UniProt P27361); conditions: Compound concentration 1000.0 nM
[12] = target: Rho-associated protein kinase 2 (Homo sapiens) (UniProt O75116); conditions: Compound concentration 1000.0 nM
Sequence of Rho-associated protein kinase 2 (Homo sapiens) (O75116 whole entry, looked up): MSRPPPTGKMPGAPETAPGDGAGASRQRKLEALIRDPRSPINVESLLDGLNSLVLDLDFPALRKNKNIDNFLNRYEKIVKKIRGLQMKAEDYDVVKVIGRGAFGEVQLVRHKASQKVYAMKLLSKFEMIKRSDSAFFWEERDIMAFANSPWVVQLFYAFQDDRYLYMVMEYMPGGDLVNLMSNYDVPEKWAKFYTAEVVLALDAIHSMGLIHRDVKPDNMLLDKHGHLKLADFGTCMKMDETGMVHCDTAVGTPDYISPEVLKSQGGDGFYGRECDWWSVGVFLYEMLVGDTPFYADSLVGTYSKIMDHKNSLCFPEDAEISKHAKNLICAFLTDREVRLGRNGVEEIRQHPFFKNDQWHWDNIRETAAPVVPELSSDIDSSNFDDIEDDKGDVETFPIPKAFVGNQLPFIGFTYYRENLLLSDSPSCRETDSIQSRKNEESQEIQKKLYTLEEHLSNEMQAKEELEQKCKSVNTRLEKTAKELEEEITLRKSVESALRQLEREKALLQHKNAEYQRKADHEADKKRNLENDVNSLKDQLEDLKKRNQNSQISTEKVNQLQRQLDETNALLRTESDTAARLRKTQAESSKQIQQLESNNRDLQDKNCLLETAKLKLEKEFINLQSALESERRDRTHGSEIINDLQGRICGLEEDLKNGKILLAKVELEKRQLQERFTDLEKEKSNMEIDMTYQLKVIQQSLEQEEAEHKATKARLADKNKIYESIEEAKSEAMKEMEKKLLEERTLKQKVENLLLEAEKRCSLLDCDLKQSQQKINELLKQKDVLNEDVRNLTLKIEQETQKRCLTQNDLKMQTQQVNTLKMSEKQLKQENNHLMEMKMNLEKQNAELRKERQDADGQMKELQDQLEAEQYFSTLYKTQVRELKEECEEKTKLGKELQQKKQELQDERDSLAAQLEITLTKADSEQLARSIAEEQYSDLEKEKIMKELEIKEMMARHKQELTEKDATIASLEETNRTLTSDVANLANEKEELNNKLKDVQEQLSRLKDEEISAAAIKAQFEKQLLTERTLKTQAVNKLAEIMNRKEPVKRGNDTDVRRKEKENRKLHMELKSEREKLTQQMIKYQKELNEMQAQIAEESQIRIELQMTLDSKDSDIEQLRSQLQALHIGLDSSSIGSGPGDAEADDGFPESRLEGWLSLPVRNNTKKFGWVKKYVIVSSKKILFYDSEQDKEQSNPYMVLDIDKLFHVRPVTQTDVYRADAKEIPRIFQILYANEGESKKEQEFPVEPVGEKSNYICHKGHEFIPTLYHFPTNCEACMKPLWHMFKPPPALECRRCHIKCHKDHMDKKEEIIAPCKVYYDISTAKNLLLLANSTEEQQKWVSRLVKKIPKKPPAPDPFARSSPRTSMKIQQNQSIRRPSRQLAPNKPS

[13] = target: Dual specificity mitogen-activated protein kinase kinase 6 (Homo sapiens) (UniProt P52564); conditions: Compound concentration 1000.0 nM
[14] = target: Serine/threonine-protein kinase NLK (Homo sapiens) (UniProt Q9UBE8); conditions: Compound concentration 1000.0 nM
[15] = system: Mast/stem cell growth factor receptor Kit (Homo sapiens), P10721 [D816V]; conditions: Compound concentration 1000.0 nM
[16] = target: Mitogen-activated protein kinase kinase kinase 10 (Homo sapiens) (UniProt Q02779); conditions: Compound concentration 1000.0 nM
[17] = target: Leucine-rich repeat serine/threonine-protein kinase 2 (Homo sapiens) (UniProt Q5S007); conditions: Compound concentration 1000.0 nM
[18] = target: Cyclin-dependent kinase 2 (Homo sapiens) (UniProt P24941); conditions: Compound concentration 1000.0 nM
[19] = target: Casein kinase I isoform delta (Homo sapiens) (UniProt P48730); conditions: Compound concentration 1000.0 nM
[20] = target: Insulin-like growth factor 1 receptor (Homo sapiens) (UniProt P08069); conditions: Compound concentration 1000.0 nM
[21] = target: Calcium/calmodulin-dependent protein kinase type 1D (Homo sapiens) (UniProt Q8IU85); conditions: Compound concentration 1000.0 nM
[22] = target: Death-associated protein kinase 1 (Homo sapiens) (UniProt P53355); conditions: Compound concentration 1000.0 nM
Sequence of Death-associated protein kinase 1 (Homo sapiens) (P53355 whole entry, looked up): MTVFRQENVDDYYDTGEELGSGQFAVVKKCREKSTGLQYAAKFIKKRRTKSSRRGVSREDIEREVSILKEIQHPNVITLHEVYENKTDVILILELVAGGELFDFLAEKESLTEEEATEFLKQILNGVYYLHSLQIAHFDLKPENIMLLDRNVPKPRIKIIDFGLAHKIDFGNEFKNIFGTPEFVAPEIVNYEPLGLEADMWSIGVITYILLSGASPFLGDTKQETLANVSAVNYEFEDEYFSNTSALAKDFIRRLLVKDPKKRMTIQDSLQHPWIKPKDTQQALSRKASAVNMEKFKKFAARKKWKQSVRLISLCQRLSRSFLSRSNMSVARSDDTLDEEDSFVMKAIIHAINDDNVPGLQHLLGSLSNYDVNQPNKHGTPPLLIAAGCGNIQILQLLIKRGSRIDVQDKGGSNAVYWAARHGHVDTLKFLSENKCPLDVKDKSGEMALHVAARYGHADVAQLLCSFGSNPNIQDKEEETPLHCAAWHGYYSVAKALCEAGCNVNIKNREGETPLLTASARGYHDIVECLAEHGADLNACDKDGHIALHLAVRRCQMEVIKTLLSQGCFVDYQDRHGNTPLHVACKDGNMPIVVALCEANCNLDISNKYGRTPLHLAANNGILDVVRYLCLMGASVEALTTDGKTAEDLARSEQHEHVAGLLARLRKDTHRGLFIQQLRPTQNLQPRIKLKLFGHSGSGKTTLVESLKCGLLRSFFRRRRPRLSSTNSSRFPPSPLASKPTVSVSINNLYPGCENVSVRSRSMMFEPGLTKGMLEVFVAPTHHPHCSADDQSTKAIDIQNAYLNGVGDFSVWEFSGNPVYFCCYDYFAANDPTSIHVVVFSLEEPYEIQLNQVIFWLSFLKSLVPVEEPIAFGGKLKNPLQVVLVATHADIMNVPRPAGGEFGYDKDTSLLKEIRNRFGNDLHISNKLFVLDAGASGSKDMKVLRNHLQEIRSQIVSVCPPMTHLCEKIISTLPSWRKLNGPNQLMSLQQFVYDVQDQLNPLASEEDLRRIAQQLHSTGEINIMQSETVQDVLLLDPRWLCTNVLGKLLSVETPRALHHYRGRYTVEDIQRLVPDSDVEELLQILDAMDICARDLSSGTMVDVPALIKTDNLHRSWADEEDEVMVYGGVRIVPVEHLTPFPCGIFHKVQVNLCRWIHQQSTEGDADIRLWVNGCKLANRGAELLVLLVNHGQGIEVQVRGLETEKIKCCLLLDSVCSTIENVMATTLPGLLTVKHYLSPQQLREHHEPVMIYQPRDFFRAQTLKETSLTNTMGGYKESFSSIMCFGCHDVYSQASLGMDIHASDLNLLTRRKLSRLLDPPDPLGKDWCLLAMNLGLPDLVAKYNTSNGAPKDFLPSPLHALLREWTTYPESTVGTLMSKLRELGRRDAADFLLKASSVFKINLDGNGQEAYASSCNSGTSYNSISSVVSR

[23] = target: Mitogen-activated protein kinase kinase kinase 3 (Homo sapiens) (UniProt Q99759); conditions: Compound concentration 1000.0 nM
[24] = system: Epidermal growth factor receptor (Homo sapiens), P00533 [T790M]; conditions: Compound concentration 1000.0 nM
[25] = target: Interferon-induced, double-stranded RNA-activated protein kinase (Homo sapiens) (UniProt P19525); conditions: Compound concentration 1000.0 nM
[26] = target: Receptor tyrosine-protein kinase erbB-4 (Homo sapiens) (UniProt Q15303); conditions: Compound concentration 1000.0 nM
[27] = target: Cyclin-dependent kinase 9 (Homo sapiens) (UniProt P50750); conditions: Compound concentration 1000.0 nM
[28] = target: Tyrosine-protein kinase CSK (Homo sapiens) (UniProt P41240); conditions: Compound concentration 1000.0 nM
[29] = target: SRSF protein kinase 1 (Homo sapiens) (UniProt Q96SB4); conditions: Compound concentration 1000.0 nM
Sequence of SRSF protein kinase 1 (Homo sapiens) (Q96SB4 whole entry): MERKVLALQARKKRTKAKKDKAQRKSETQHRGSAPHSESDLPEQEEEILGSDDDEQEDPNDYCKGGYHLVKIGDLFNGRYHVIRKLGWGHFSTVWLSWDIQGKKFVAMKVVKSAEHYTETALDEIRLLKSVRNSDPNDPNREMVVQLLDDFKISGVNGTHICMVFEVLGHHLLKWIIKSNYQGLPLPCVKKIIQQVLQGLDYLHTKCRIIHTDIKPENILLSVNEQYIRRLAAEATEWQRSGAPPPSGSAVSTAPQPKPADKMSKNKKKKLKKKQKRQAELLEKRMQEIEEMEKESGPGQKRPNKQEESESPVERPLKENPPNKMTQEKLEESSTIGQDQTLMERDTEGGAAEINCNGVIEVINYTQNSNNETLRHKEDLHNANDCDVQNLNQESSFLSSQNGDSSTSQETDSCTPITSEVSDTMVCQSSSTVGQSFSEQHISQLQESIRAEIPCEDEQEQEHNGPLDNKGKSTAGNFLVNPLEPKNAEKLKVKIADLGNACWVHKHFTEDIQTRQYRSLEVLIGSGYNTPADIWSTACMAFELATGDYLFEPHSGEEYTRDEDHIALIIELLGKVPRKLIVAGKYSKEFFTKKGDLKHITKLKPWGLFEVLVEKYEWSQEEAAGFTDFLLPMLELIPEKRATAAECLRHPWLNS

[30] = target: Activin receptor type-2A (Homo sapiens) (UniProt P27037); conditions: Compound concentration 1000.0 nM
Sequence of Activin receptor type-2A (Homo sapiens) (P27037 whole entry): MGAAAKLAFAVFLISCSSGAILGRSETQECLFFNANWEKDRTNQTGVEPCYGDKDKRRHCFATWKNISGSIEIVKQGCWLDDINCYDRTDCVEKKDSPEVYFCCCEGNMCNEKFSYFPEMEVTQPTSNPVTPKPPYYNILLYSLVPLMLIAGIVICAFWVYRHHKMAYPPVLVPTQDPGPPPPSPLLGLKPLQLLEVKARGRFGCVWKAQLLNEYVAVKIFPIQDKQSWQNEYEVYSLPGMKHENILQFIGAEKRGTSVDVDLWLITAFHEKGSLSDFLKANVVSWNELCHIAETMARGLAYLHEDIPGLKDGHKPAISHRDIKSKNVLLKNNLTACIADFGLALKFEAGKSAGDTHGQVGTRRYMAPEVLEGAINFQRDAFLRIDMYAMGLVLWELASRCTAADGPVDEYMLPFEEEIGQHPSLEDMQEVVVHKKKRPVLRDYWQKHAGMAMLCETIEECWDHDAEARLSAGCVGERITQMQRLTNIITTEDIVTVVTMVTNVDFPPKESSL

[31] = target: TGF-beta receptor type-2 (Homo sapiens) (UniProt P37173); conditions: Compound concentration 1000.0 nM
Sequence of TGF-beta receptor type-2 (Homo sapiens) (P37173 whole entry, canonical isoform): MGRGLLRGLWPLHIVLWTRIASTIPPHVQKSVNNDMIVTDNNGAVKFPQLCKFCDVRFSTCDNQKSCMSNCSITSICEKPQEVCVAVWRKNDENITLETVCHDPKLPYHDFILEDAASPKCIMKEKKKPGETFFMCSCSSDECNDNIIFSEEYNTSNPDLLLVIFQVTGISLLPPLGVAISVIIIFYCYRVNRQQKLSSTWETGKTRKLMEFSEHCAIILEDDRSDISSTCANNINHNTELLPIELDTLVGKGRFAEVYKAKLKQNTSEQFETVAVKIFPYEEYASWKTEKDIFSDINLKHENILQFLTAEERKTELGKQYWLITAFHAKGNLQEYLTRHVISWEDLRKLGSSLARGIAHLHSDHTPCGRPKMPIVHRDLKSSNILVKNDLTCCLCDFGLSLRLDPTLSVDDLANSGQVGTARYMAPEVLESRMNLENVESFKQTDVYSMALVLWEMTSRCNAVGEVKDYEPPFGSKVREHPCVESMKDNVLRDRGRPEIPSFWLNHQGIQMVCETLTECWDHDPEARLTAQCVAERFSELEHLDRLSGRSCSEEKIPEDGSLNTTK

[32] = system: Phosphatidylinositol 4,5-bisphosphate 3-kinase catalytic subunit alpha isoform (Homo sapiens), P42336 [C420R]; conditions: Compound concentration 1000.0 nM
[33] = target: Protein kinase C epsilon type (Homo sapiens) (UniProt Q02156); conditions: Compound concentration 1000.0 nM
[34] = target: Hormonally up-regulated neu tumor-associated kinase (Homo sapiens) (UniProt P57058); conditions: Compound concentration 1000.0 nM
[35] = target: Citron Rho-interacting kinase (Homo sapiens) (UniProt O14578); conditions: Compound concentration 1000.0 nM
[36] = target: Casein kinase I isoform alpha-like (Homo sapiens) (UniProt Q8N752); conditions: Compound concentration 1000.0 nM

Sequence of Muscarinic acetylcholine receptor M5 (Homo sapiens) (P08912 whole entry): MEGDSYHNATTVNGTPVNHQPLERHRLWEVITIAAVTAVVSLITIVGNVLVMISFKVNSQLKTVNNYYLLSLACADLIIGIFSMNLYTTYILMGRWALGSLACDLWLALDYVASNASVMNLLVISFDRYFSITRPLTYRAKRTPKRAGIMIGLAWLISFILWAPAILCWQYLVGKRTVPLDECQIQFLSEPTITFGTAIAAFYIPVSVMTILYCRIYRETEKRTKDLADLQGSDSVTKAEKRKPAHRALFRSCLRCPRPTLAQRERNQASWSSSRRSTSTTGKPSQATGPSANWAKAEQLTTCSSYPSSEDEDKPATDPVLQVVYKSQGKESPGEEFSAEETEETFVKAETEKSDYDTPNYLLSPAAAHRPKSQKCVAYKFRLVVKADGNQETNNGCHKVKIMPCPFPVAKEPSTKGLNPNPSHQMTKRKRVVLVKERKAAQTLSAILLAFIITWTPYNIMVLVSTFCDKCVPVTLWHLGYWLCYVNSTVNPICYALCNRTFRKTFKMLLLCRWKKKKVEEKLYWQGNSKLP

CO[C@@H](C)c1c(Nc2ccc([C@@H](N(C)C(=O)C3CCS(=O)(=O)CC3)C(F)(F)F)cc2)cnc2cc(Cl)nn12 [NVS-MALT1-C]
inactive: residual activity [1] 78% | inhibition [2] 7.57% | residual activity [3] 100% | residual activity [4] 100% | residual activity [5] 78% | residual activity [6] 99% | residual activity [7] 100% | residual activity [8] 78% | residual activity [9] 77% | residual activity [10] 96% | residual activity [11] 86% | residual activity [12] 100% | residual activity [13] 92% | residual activity [14] 84% | residual activity [15] 99% | residual activity [16] 77% | residual activity [17] 100% | residual activity [18] 100% | residual activity [19] 100% | residual activity [20] 97% | residual activity [21] 100% | residual activity [22] 89% | residual activity [23] 100% | residual activity [24] 100% | residual activity [25] 88% | residual activity [26] 77% | residual activity [27] 100% | residual activity [28] 100% | residual activity [29] 95% | residual activity [30] 100% | residual activity [31] 100% | residual activity [32] 93% | residual activity [33] 94% | residual activity [34] 100% | residual activity [35] 97% | residual activity [36] 84%

CO[C@@H](C)c1c(Nc2ccc([C@H](N(C)C(=O)C3CCS(=O)(=O)CC3)C(F)(F)F)cc2)cnc2cc(Cl)nn12 [NVS-MALT1]
inactive: residual activity [1] 97% | inhibition [2] 14.6% | residual activity [3] 100% | residual activity [4] 100% | residual activity [5] 87% | residual activity [6] 96% | residual activity [7] 100% | residual activity [8] 96% | residual activity [9] 91% | residual activity [10] 100% | residual activity [11] 100% | residual activity [12] 100% | residual activity [13] 91% | residual activity [14] 83% | residual activity [15] 96% | residual activity [16] 71% | residual activity [17] 100% | residual activity [18] 88% | residual activity [19] 88% | residual activity [20] 100% | residual activity [21] 99% | residual activity [22] 88% | residual activity [23] 73% | residual activity [24] 90% | residual activity [25] 96% | residual activity [26] 84% | residual activity [27] 85% | residual activity [28] 100% | residual activity [29] 96% | residual activity [30] 93% | residual activity [31] 100% | residual activity [32] 93% | residual activity [33] 100% | residual activity [34] 100% | residual activity [35] 94% | residual activity [36] 65%
